Measured values as given in patent publication US20100136603A1, “KIT AND A METHOD FOR EVALUATING TOXICITY USING SPORE RELEASE BY THE GREEN ALGA ULVA” (priority 2008, published 2010).

System: Ulva pertusa Kjellman
Conditions: for order of toxicity of the heavy metal, estimated by EC50: rank order among heavy metals, spore release, 96 hours
Procedure: The present inventors collected Ulva pertusa Kjellman from the coast of Ahnin in Korea, and the leaf (thallus) of Ulva pertusa Kjellman was cut to have a coin shape having a diameter of 6 mm, and dispensed in the plastic cell plate containing 10 ml artificial sea water (35%) medium (Coralife, Energy Savers, California. USA) supplemented with 1 mM KNO3 and 0.1 mM K2HPO4.
The toxicity test was then carried out by adding toxic materials (toxicants) into the medium, keeping the other environmental conditions constant. The used toxic materials and the target concentration are described in the following Table 1.
After cultivated for 96 hours, the thallus having the coin shape was collected, and the area with white color was measured by using the microscope (Axioscope) having a magnification of 400× and the image analysis system (MV200, Samsung, Korea).
The mother liquid of TBTO was prepared in acetone that was mixed with the sea water (0.01%); here an acetone control group in the same concentration was also tested. The toxicities of volatile organic compounds (VOC) [acetone, ethanol, formalin and methanol) were tested by adding aqueous volatile organic compounds (VOC) to the medium to achieve the target concentration.

SMILES | order of toxicity of the heavy metal, estimated by EC50 | order of toxicity of the volatile organic compound (VOC) (in vivo) | half effective concentration (EC50) (in vivo) [μl/L]
[Cd] [Cd, cadmium] | Cu>Cd>Zn>Pb | – | –
[Cu] [Cu, copper] | Cu>Cd>Zn>Pb | – | –
[Zn] [Zn, zinc] | Cu>Cd>Zn>Pb | – | –
CC(C)=O [acetone] | – | formaline>methanol>ethanol>acetone | –
CCO [ethanol] | – | formaline>methanol>ethanol>acetone | –
C=O [formaline] | – | formaline>methanol>ethanol>acetone | 0.788
CO [methanol] | – | formaline>methanol>ethanol>acetone | –
